Test results: ChEMBL document CHEMBL5370554, “Discovery of a first-in-class Aurora A covalent inhibitor for the treatment of triple negative breast cancer” (Eur J Med Chem, 2023)

Tests used:
MDA-MB-231 = assay: Antiproliferative activity against human MDA-MB-231 cells assessed as inhibition of cell proliferation incubated for 48 hrs by CCK-8 assay; type: functional, cell-based; conditions: MDA-MB-231, 48 h
Aurora kinase A [1] = molecular target: T1, Aurora kinase A (Homo sapiens, UniProt O14965); assay: Inhibition of recombinant human Aurora A (1 to 403 residues) expressed in Escherichia coli using FAM-labeled peptide as substrate preincubated for 10 mins followed by substrate addition and measured after 20 mins in presence of ATP by HTRF assay
T1 sequence (O14965 whole entry): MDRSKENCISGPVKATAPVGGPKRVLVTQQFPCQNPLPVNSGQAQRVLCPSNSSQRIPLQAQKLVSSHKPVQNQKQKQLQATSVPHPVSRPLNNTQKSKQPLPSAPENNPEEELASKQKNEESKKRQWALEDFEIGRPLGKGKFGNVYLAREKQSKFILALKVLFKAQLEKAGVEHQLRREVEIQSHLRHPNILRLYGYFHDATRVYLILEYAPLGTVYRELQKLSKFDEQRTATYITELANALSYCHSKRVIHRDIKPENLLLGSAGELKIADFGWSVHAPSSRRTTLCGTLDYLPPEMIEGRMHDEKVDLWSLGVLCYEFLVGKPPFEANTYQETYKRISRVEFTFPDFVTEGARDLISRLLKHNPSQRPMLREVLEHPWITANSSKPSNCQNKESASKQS

HeLa = assay: Antiproliferative activity against human HeLa cells assessed as inhibition of cell proliferation incubated for 48 hrs by CCK-8 assay; type: functional, cell-based
Aurora kinase A [2] = molecular target: T1, Aurora kinase A; assay: Inhibition of recombinant human Aurora A (1 to 403 residues) expressed in Escherichia coli using STK-substrate 2-biotin as substrate incubated for 60 mins in presence of 2.4uM ATP by HTRF assay
[3] = molecular target: T2, Aurora kinase A (Homo sapiens) (UniProt O14965); assay: Irreversible inhibition of recombinant human Aurora A (1 to 403 residues) expressed in Escherichia coli assessed as ratio of Kinact/Ki using STK-substrate 2-biotin as substrate at 0.625 to 40 uM incubated upto 7000 sec in presence of ATP by HTRF assay; conditions: dose 0.625-40 µM
T2 sequence (whole entry): T1 sequence (O14965 whole entry)

IC50 (MDA-MB-231): 1540 nM
IC50 (Aurora kinase A [1]): 1.7 nM
IC50 (HeLa): 6990 nM
IC50 (Aurora kinase A [2]): 3.91 nM
Ratio [3]: 6.02 10^3/M/s
SMILES: C=CC(=O)Nc1ccc(-c2nc(Nc3cc(C)[nH]n3)c3ccc(N4CCN(C)CC4)cc3n2)cc1
